In US4594329A, “CRF analogs” (The Salk Institute for Biological Studies, priority 1984, dated 1986):
pEC50: −log10 of the molar value. Square brackets hold non-standard residues; d marks the D form. Peptide text beside a SMILES is read from it. * marks the point of attachment. hArg = N=C(N)NCCCC[C@H](N)C(=O)O; Nle = CCCC[C@H](N)C(=O)O; Orn = NCCC[C@H](N)C(=O)O; Bz = O=C(c1ccccc1)*

Columns and labels:
[1] = test system: cultured rat pituitary cells; assay: secretion of ACTH and β-endorphin by cultured rat pituitary cells; assay type: cell-based
Procedure: (§1) The synthetic peptide AHC and oCRF were examined for their effects on the secretion of ACTH and β-endorphin in vitro and was also in vivo. The potency of synthetic oCRF to stimulate the secretion of ACTH and β-endorphin by cultured rat pituitary cells was measured using the procedure as generally set forth in Endocrinology, 91, 562 (1972). […] In vivo testing is carried out using the general procedure set forth in C. Rivier et al., Science, 218, 377 (1982).

[2] = lowering of blood pressure, in vivo testing; conditions: general procedure of Example III
Procedure: as §1

[3] = general procedure of Example III

## CC[C@H](C)[C@H](NC(=O)[C@@H](NC(=O)[C@H](CC(=O)O)NC(=O)[C@H](CC(C)C)NC(=O)[C@H](CC(C)C)NC(=O)[C@H](CC(C)C)NC(=O)[C@H](CCCNC(=N)N)NC(=O)[C@H](CC(N)=O)NC(=O)[C@H](CC(N)=O)NC(=O)[C@H](C)NC(=O)[C@H](C)NC(=O)[C@H](CCC(N)=O)NC(=O)[C@H](CCC(=O)O)NC(=O)[C@H](CCCCN)NC(=O)[C@H](CCC(=O)O)NC(=O)[C@H](CCCCN)NC(=O)[C@H](CCC(=O)O)NC(=O)[C@H](CCC(N)=O)NC(=O)[C@H](CCCCN)NC(=O)[C@H](CCCNC(=N)N)NC(=O)[C@H](C)NC(=O)[C@H](CCC(=O)O)NC(=O)[C@@H](NC(=O)[C@H](CCSC)NC(=O)[C@H](CCCCN)NC(=O)[C@H](CCCNC(=N)N)NC(=O)[C@H](CC(C)C)NC(=O)[C@H](CC(C)C)NC(=O)[C@H](CCC(=O)O)NC(=O)[C@H](CC(C)C)NC(=O)[C@H](CO)NC(=O)[C@H](CC(C)C)NC(=O)[C@H](CC(=O)O)NC(=O)[C@@H](NC(=O)[C@H](CO)NC(=O)[C@@H](NC(=O)[C@@H]1CCCN1C(=O)[C@@H]1CCCN1C(=O)CNC(=O)[C@@H]1CCC(=O)N1)[C@@H](C)CC)[C@@H](C)CC)[C@@H](C)CC)[C@@H](C)CC)C(N)=O
[1]; [3]
  stimulates the secretion of ACTH and β-END-LI: stimulates the secretion of ACTH and β-END-LI
[2]
  lowering of blood pressure: very significant lowering of blood pressure

## CC[C@H](C)[C@H](NC(=O)[C@H](CCC(=O)O)NC(=O)[C@H](CC(=O)O)NC(=O)[C@H](CCSC)NC(=O)[C@H](CC(C)C)NC(=O)[C@H](CCCCNC(=N)N)NC(=O)[C@H](CCCNC(=N)N)NC(=O)[C@H](CC(N)=O)NC(=O)[C@H](CC(N)=O)NC(=O)[C@H](C)NC(=O)[C@H](C)NC(=O)[C@H](CCC(N)=O)NC(=O)[C@H](CCC(N)=O)NC(=O)[C@H](CCCCN)NC(=O)[C@H](CC(C)C)NC(=O)[C@H](CCCCN)NC(=O)[C@H](CCC(=O)O)NC(=O)[C@H](CCC(N)=O)NC(=O)[C@H](CCCCN)NC(=O)[C@H](CCC(=O)O)NC(=O)[C@@H](NC(=O)[C@H](CCC(=O)O)NC(=O)[C@@H](NC(=O)[C@H](CCSC)NC(=O)[C@H](CCCCN)NC(=O)[C@H](CCCNC(=N)N)NC(=O)[C@H](CC(C)C)NC(=O)[C@H](CC(C)C)NC(=O)[C@H](CCC(=O)O)NC(=O)[C@H](CC(C)C)NC(=O)[C@H](CO)NC(=O)[C@H](CC(C)C)NC(=O)[C@H](CC(=O)O)NC(=O)[C@@H](NC(=O)[C@H](CO)NC(=O)[C@@H](NC(=O)[C@@H]1CCCN1C(=O)[C@@H]1CCCN1C(=O)CNC(=O)[C@@H]1CCC(=O)N1)[C@@H](C)CC)[C@@H](C)CC)[C@@H](C)CC)[C@@H](C)CC)C(N)=O
[1]; [3]
  stimulates the secretion of ACTH and β-END-LI: stimulates the secretion of ACTH and β-END-LI
[2]
  lowering of blood pressure: very significant lowering of blood pressure

## CCCC[C@H](NC(=O)[C@@H](NC(=O)[C@H](CC(C)C)NC(=O)[C@H](CC(=O)O)NC(=O)[C@H](CC(C)C)NC(=O)[C@H](CO)NC(=O)[C@@H](NC(=O)[C@@H]1CCCN1C(=O)[C@@H]1CCCN1C(=O)[C@H](CCC(=O)O)NC(=O)CNC(=O)c1ccccc1)[C@@H](C)CC)[C@@H](C)O)C(=O)N[C@@H](Cc1c[nH]cn1)C(=O)N[C@@H](CC(C)C)C(=O)N[C@@H](CC(C)C)C(=O)N[C@@H](CCCNC(=N)N)C(=O)N[C@@H](CCC(=O)O)C(=O)N[C@H](C(=O)N[C@@H](CC(C)C)C(=O)N[C@@H](CCC(=O)O)C(=O)N[C@@H](CCSC)C(=O)N[C@@H](C)C(=O)N[C@@H](CCCNC(=N)N)C(=O)N[C@@H](C)C(=O)N[C@@H](CCC(=O)O)C(=O)N[C@@H](CCC(N)=O)C(=O)N[C@@H](CC(C)C)C(=O)N[C@@H](C)C(=O)N[C@@H](CCC(=O)O)C(=O)N[C@@H](CCC(N)=O)C(=O)N[C@@H](C)C(=O)N[C@@H](Cc1c[nH]cn1)C(=O)N[C@@H](CO)C(=O)N[C@@H](CC(N)=O)C(=O)N[C@@H](CCCNC(=N)N)C(=O)N[C@@H](CCCNC(=N)N)C(=O)N[C@@H](CC(C)C)C(=O)N[C@@H](CCSC)C(=O)N[C@@H](CCC(=O)O)C(=O)N[C@H](C(=O)N[C@H](C(N)=O)[C@@H](C)CC)[C@@H](C)CC)C(C)C (Bz-GEPPISLDLT[Nle]HLLREVLEMARAEQLAEQAHSNRRLMEII-NH2)
[1]; [3]
  stimulates the secretion of ACTH and β-END-LI: stimulates the secretion of ACTH and β-END-LI
[2]
  lowering of blood pressure: very significant lowering of blood pressure

## CC[C@H](C)[C@H](NC(=O)[C@@H]1CCCN1C(=O)[C@@H]1CCCN1)C(=O)N[C@@H](CO)C(=O)N[C@@H](CC(C)C)C(=O)N[C@@H](CC(=O)O)C(=O)N[C@@H](CC(C)C)C(=O)N[C@H](C(=O)N[C@@H](CC(C)C)C(=O)N[C@@H](Cc1c[nH]cn1)C(=O)N[C@@H](CC(C)C)C(=O)N[C@@H](CC(C)C)C(=O)N[C@@H](CCCNC(=N)N)C(=O)N[C@@H](CCC(=O)O)C(=O)N[C@@H](CCSC)C(=O)N[C@@H](CC(C)C)C(=O)N[C@@H](CCC(=O)O)C(=O)N[C@@H](CCSC)C(=O)N[C@@H](CCC(=O)O)C(=O)N[C@@H](CCCN)C(=O)N[C@@H](C)C(=O)N[C@@H](CCC(=O)O)C(=O)N[C@@H](CCC(N)=O)C(=O)N[C@@H](CCC(=O)O)C(=O)N[C@@H](C)C(=O)N[C@@H](CCC(=O)O)C(=O)N[C@@H](CCC(N)=O)C(=O)N[C@@H](C)C(=O)N[C@@H](C)C(=O)N[C@@H](CC(C)C)C(=O)N[C@@H](CC(N)=O)C(=O)N[C@@H](CCCNC(=N)N)C(=O)N[C@@H](CCCCNC(=N)N)C(=O)N[C@@H](CC(C)C)C(=O)N[C@@H](CC(C)C)C(=O)N[C@@H](CCC(=O)O)C(=O)N[C@@H](CCC(=O)O)C(=O)N[C@@H](C)C(N)=O)[C@@H](C)O (H-PPISLDLTLHLLREMLEME[Orn]AEQEAEQAALNR[hArg]LLEEA-NH2)
[1]; [3]
  stimulates the secretion of ACTH and β-END-LI: stimulates the secretion of ACTH and β-END-LI
[2]
  lowering of blood pressure: very significant lowering of bloood pressure

## CCCC[C@H](NC(=O)[C@H](CCC(=O)O)NC(=O)[C@H](CC(C)C)NC(=O)[C@H](CCCC)NC(=O)[C@H](CCC(=O)O)NC(=O)[C@H](CCCNC(=N)N)NC(=O)[C@H](CC(C)C)NC(=O)[C@H](CC(C)C)NC(=O)[C@H](Cc1c[nH]cn1)NC(=O)[C@H](Cc1ccccc1)NC(=O)[C@@H](NC(=O)[C@H](CC(C)C)NC(=O)[C@H](CC(=O)O)NC(=O)[C@H](CC(C)C)NC(=O)[C@H](CO)NC(=O)[C@@H](NC(=O)[C@@H]1CCCN1C(=O)[C@H]1CCCN1)[C@@H](C)CC)[C@@H](C)O)C(=O)N[C@@H](C)C(=O)N[C@@H](CCCCN)C(=O)N[C@@H](C)C(=O)N[C@@H](CCC(=O)O)C(=O)N[C@@H](CCC(N)=O)C(=O)N[C@@H](CCC(=O)O)C(=O)N[C@@H](C)C(=O)N[C@@H](CCC(=O)O)C(=O)N[C@@H](CCC(N)=O)C(=O)N[C@@H](C)C(=O)N[C@@H](C)C(=O)N[C@@H](CC(C)C)C(=O)N[C@@H](CC(N)=O)C(=O)N[C@@H](CCCNC(=N)N)C(=O)N[C@@H](CC(C)C)C(=O)N[C@@H](CC(C)C)C(=O)N[C@@H](CC(C)C)C(=O)N[C@@H](CCC(=O)O)C(=O)N[C@@H](CCC(=O)O)C(=O)N[C@@H](C)C(N)=O [[D-Pro^4, Nle^18,21]-AHC(4-41)] (H-[dP]PISLDLTFHLLRE[Nle]LE[Nle]AKAEQEAEQAALNRLLLEEA-NH2)
[1]; % of oCRF, general procedure of Example III
  secretion of ACTH and β-END-LI, amount relative to oCRF: about 160%
[2]
  lowering of blood pressure: very significant lowering of blood pressure

## CC[C@H](C)[C@H](NC(=O)[C@H](CC(=O)O)NC(=O)[C@H](CC(C)C)NC(=O)[C@H](CC(C)C)NC(=O)[C@H](CCCCN)NC(=O)[C@H](CCCNC(=N)N)NC(=O)[C@H](CC(N)=O)NC(=O)[C@H](CO)NC(=O)[C@H](Cc1c[nH]cn1)NC(=O)[C@H](C)NC(=O)[C@H](CCC(N)=O)NC(=O)[C@H](CCC(N)=O)NC(=O)[C@H](C)NC(=O)[C@H](CC(C)C)NC(=O)[C@H](CCC(N)=O)NC(=O)[C@H](CC(=O)O)NC(=O)[C@H](C)NC(=O)[C@H](CCCCN)NC(=O)[C@H](CC(=O)O)NC(=O)[C@H](CCSC)NC(=O)[C@H](CCC(=O)O)NC(=O)[C@H](CC(C)C)NC(=O)[C@@H](NC(=O)[C@H](CCC(=O)O)NC(=O)[C@H](CCCNC(=N)N)NC(=O)[C@H](CC(C)C)NC(=O)[C@H](CC(C)C)NC(=O)[C@H](Cc1c[nH]cn1)NC(=O)[C@H](Cc1ccccc1)NC(=O)[C@@H](NC(=O)[C@H](CC(C)C)NC(=O)[C@H](CC(=O)O)NC(=O)[C@H](CC(C)C)NC(=O)[C@H](CO)NC(=O)[C@@H](NC(=O)[C@H]1CCCN1)[C@@H](C)CC)[C@@H](C)O)C(C)C)C(=O)N[C@@H](C)C(N)=O [[D-Pro^4,Asp^22]-oCRF(4-41)] (H-[dP]ISLDLTFHLLREVLEMDKADQLAQQAHSNRKLLDIA-NH2)
[1]; [3]
  stimulates the secretion of ACTH and β-END-LI: stimulates the secretion of ACTH and β-END-LI
[2]
  lowering of blood pressure: very significant lowering of blood pressure

## H-SQEPPISLDLTFHLLREMLEMAKAEQEAEQAALNRLLLEEA-NH2 [AHC]
[1]; cultured rat pituitary cells, read-out: concentration giving half-maximal responses, secretion of ACTH and β-endorphin
  pEC50: ~10.19
[1]; general statement, compared with native CRF, test not named
  potency: particularly potent
[1]; maximal (1-5 nM) concentrations
  secretory response to maximal concentrations: at a plateau level
